The results in this text go back to patent publication US9005670B2, “Use of histone acetyltransferase inhibitors as novel anti-cancer therapies” (The Johns Hopkins University, priority 2010, dated 2015).

For data set [1], the target named is T1, p300 HAT (Homo sapiens, UniProt Q09472, DEL1529-1560/M1652G).
T1 construct: A variant of the HAT domain of p300 (residues 1287 to 1652) was expressed as a fusion; a C-terminal peptide corresponding to residues 1653-1666 of p300; made in house; host or cells: E. coli BL21(RIL)-DE3; C-terminal peptide by solid phase synthesis
T1 sequence (Q09472 with tags, fused parts or gaps DEL1529-1560/M1652G limits assumed): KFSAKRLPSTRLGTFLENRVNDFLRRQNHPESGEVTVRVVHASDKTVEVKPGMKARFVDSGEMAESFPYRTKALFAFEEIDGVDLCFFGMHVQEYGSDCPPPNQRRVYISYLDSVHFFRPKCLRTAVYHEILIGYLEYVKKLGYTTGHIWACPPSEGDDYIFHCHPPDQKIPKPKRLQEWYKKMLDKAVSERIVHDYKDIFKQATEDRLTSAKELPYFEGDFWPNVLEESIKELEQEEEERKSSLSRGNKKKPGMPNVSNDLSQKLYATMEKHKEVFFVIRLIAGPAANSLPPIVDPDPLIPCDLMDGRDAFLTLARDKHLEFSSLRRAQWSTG
The data set is described as follows: direct radioactive p300 HAT assay (14C-acetyl-CoA transfer to H4-15). The note with it: for weakening of p300 inhibitory potency compared with C646 (relative IC50): range of concentrations. It is filed as biochemical. As for the experimental part: In this assay, production of ^14C-labeled Ac-H4-15 is monitored electrophoretically. Reactions were performed in 20 mM HEPES, pH 7.9, and contained 5 mM DTT, 80 μM EDTA, 40 μg/mL BSA, 100 μM H4-15, and 5 nM p300. […] Reactions were incubated at 30° C. for 10 minutes, initiated with addition of a 1:1 mixture of 12 C-acetyl-CoA and 14 C-acetyl-CoA to a final concentration of 20 μM, and allowed to run for 10 min at 30° C. Reactions are then quenched with addition of 14% SDS (w/v). Turnover was kept below 10%. All compounds were screened in duplicate. Samples were then loaded onto a 16% Tris-Tricine gel along with a BSA standard and run at 140 V for 90 minutes. Gels were washed and dried, and exposed in a PhosphorImager cassette for ˜2 days. Bands corresponding to Ac-H4-15 were then quantified using ImageQuant.
Reactions were performed in 20 mM HEPES, pH 7.9, and contained 5 mM DTT, 80 μM EDTA, 40 μg/mL BSA, 100 μM […], and 5 nM p300. Putative inhibitors were added over a range of concentrations, with DMSO concentration kept constant (<5%). Reactions were incubated at 30° C. for 10 minutes, then initiated with addition of a 1:1 mixture of ^12C-acetyl-CoA and ^14C-acetyl-CoA to 20 μM. After […] at 30° C., reactions were quenched with 14% SDS (w/v). All concentrations were screened in duplicate. Gels were run, washed, dried, and exposed to a PhosphorImager plate as described above, and production of Ac-H4-15 quantified. Data were fit to the following equation to obtain IC50s. […]

The subject of another data set is Mel-1 melanoma cells. The data set is described as follows: combination with chemotherapy, total cell number. The note with it: 48 hours. It counts as cell-based. Here is the method: The cells were grown for 24 hours in medium. The cells were given fresh medium and either 1 μM of cisplatin or 200 μM of temozolamide was added. Total cell number was counted on Day 0, at 24 hours, and 48 hours after addition of cisplatin or temozolamide.
After 24 hours, the treated and mock-treated cells were given fresh medium, and the cells were treated with cisplatin or temozolamide for 48 hours.

Data set [2] addresses T1, p300 HAT. The data set is described as follows: coupled spectrophotometric p300 HAT assay. It is filed as biochemical. As for the experimental part:
After completing the computational docking screen, the top 194 inhibitors were tested in a convenient spectrophotometric assay as described in Kim et al., Anal. Biochem. 280, 308 (2000). In the coupled spectrophotometric assay, the acetyltransferase reaction product CoASH becomes a substrate for alpha-ketoglutarate dehydrogenase, which converts NAD to NADH, resulting in an increase of UV absorbance at 340 nm. Screening conditions for these p300 HAT assays included substrate concentrations of 200 μM histone H4-15 peptide and 50 μM acetyl-CoA, and potential small molecule inhibitors tested at 100 μM. […] To distinguish inhibitory effects related to blockade of coupling enzyme rather than p300, assays were repeated using increased (2-fold) alpha-ketoglutarate dehydrogenase. […] The remaining compounds were then assessed in a protein aggregation-related inhibition assay as described in Feng et al., Nat. Chem. Biol. 1, 146 (2005). […] In this radioactive p300 HAT assay, ^14C transfer from ^14C-acetyl-CoA into peptide substrate is directly measured using Tris-Tricine SDSPAGE and phosphorimage analysis.
The top 194 p300 HAT inhibitor candidates identified by VLS were screened using a coupled spectrophotometric assay. In this assay, CoASH produced by the p300 reaction is used by α-ketoglutarate dehydrogenase (α-KGDH) to produce NADH, which can be monitored spectrophotometrically at 340 nm. Reactions were performed at 30° C. in […] HEPES, pH 7.9, and contained 200 μM H4-15, 200 μM TPP, 5 mM MgCl 2, 1 mM DTT, 50 μg/mL BSA, 200 μM NAD, 2.4 mM α-ketoglutarate, 200 μM acetyl-CoA, 0.1 units α-KGDH, and 100 nM p300. DMSO was kept at a constant 3.3%, and candidate compounds were screened at 100 μM. Reaction mixtures were incubated at 30° C. for 10 min prior to initiation. Reactions were initiated with addition of H4-15 and followed over the linear portion of the progress curve, which provides the initial velocity via linear regression. Percent inhibition was determined by comparison with velocity without candidate added. […] To ensure that compounds were not inhibiting α-KGDH instead of p300, compounds were assayed with 0.2 units of α-KGDH, two times the amount used in the initial screen. To ensure that compounds were not inhibiting through nonspecific aggregation, compounds were assayed in the presence of 0.01% Triton X-100.

One may read the melting point as the temperature, or range, at which the solid turns liquid. As usually defined, the % inhibition is the change of the read-out against control, counted positive when it falls.

In the case of `CC1=NN(c2ccc(C(=O)O)cc2)C(=O)/C1=C\c1ccc(-c2cc(C)c(C)cc2CO)o1` [Compound 6l, 4-(4,5-dihydro-4-((5-(2-(hydroxymethyl)-4,5-dimethylphenyl)-furan-2-yl)methylene)-3-methyl-5-oxopyrazol-1-yl)benzoic acid], the melting point lay within 209 to 211 °C. The “p300 HAT inhibition, result in words (analogs compared with C646)” value on p300 HAT [1] is listed as “substantial reduction in potency”. With `Cn1nnc2c(C(N)=O)ncn2c1=O` [temozolamide], the “decrease in cell number” value in the data set on Mel-1 melanoma cells (cells pre-treated with 2 μM C646 for 24 hours, then 1 μM cisplatin or 200 μM temozolamide) amounted to 31%; with Mel-1 melanoma cells (mock-treated cells, 1 μM cisplatin or 200 μM temozolamide) it was 13%.

For the compound `CC1=NN(c2ccc(C(=O)O)cc2)C(=O)/C1=C\c1ccc(-c2ccccn2)o1` [Compound 6p, 4-(4,5-dihydro-3-methyl-5-oxy-4-((5-(pyridin-2-yl)furan-2-yl)methylene)pyrazol-1-yl)benzoic acid], the melting point was in the range of 294 to 296 °C. For the same compound, at p300 HAT [1], the “p300 HAT inhibition, result in words (analogs compared with C646)” value was “eliminated p300 inhibitory action”. Regarding `O=C(O)CCC(=O)Nc1ccc(-c2nc3cc(Cl)ccc3o2)cc1` [Compound 6786461], on p300 HAT [2] (0.2 units α-KGDH (two times)), the “% inhibition with 2x coupling enz” value was determined as 100.0%. Further, the “% inhibition with .01% Triton X-100” value at p300 HAT [2] (aggregation control, 0.01% Triton X-100) stood at 58.2%. Besides, the “% inhibition in initial screen” value on p300 HAT [2] (compounds at 100 μM) turned out to be 66.6%. At p300 HAT [1] (25 uM), the “% inhibition at 25 uM in radioactive assay” value is given as 0.0%. `COC(=O)c1cc(C)c(C)cc1-c1ccc(/C=C2/CC(=O)N(c3ccc(C(=O)O)cc3)C2=O)o1` [Compound 6r, 2-{5-[1-(4-Carboxy-phenyl)-2,5-dioxo-pyrrolidin-3-ylidenemethyl]-furan-2-yl}-4,5-dimethyl-benzoic acid methyl ester] registered a melting point of 290 to 291 °C. Further, the “p300 HAT inhibition, result in words (analogs compared with C646)” value on p300 HAT [1] is “retains potency for p300 inhibition”.

In the case of `COC(=O)c1cccc(N2N=C(C)/C(=C/c3ccc(-c4cc(C)c(C)cc4[N+](=O)[O-])o3)C2=O)c1` [Compound 6i, Methyl 3-(4,5-dihydro-3-methyl-4-((5-(4,5-dimethyl-2-nitrophenyl)furan-2-yl)methylene)-5-oxopyrazol-1-yl)benzoate], the melting point was 205 to 207 °C. In addition, on p300 HAT [1], the “p300 HAT inhibition, result in words (analogs compared with C646)” value is listed as “well tolerated”. Turning to `CC1=NN(c2ccc(C(=O)O)cc2)C(=O)/C1=C\c1ccc(-c2cc(C)c(C)cc2C#N)o1` [Compound 6o, 4-(4,5-dihydro-4-((5-(4,5-dimethyl-2-benzonitrile)furan-2-yl)methylene)-3-methyl-5-oxopyrazol-1-yl)-benzoic acid], the melting point fell in the range of 295 to 297 °C. The “p300 HAT inhibition, result in words (analogs compared with C646)” value at p300 HAT [1] is “well tolerated”. On the same counts, the results for `CC1=NN(c2ccc(C(N)=O)cc2)C(=O)C1=Cc1ccc(-c2cc(C)c(C)cc2[N+](=O)[O-])o1` [Compound 6a, 4-(4,5-dihydro-3-methyl-4-((5-(4,5-dimethyl-2-nitrophenyl)furan-2-yl)methylene)-5-oxopyrazol-1-yl)benzamide] are 273 to 275 °C and “well tolerated”. On to `CC1=NN(c2ccc(S(N)(=O)=O)cc2)C(=O)/C1=C\c1ccc(-c2cc(C)c(C)cc2[N+](=O)[O-])o1` [Compound 6g], for which the melting point was in the range of 152 to 154 °C. On the same count and under the same terms, the same measure for `CCOC(=O)c1cc(C)c(C)cc1-c1ccc(/C=C2\C(=O)N(c3ccc(C(=O)O)cc3)N=C2C)o1` [Compound 6n, 4-(4,5-dihydro-4-((5-(4,5-dimethyl-2-ethylbenzoate)furan-2-yl)methylene)-3-methyl-5-oxopyrazol-1-yl)benzoic acid]: 241 to 243 °C. The compound `CC1=NN(c2cccc(C(=O)O)c2)C(=O)C1=Cc1ccc(-c2cc(C)c(C)cc2[N+](=O)[O-])o1` [Compound 6e, 3-(4,5-dihydro-3-methyl-4-((5-(4,5-dimethyl-2-nitrophenyl)furan-2-yl)methylene)-5-oxopyrazol-1-yl)benzoic acid] had a melting point of 260 to 262 °C. In addition, the “p300 HAT inhibition, result in words (analogs compared with C646)” value on p300 HAT [1] was “well tolerated”.

`CC1=NN(CCC(=O)O)C(=O)C1=Cc1ccc(-c2cc(C)c(C)cc2[N+](=O)[O-])o1` [Compound 6k, 3-(4,5-dihydro-3-methyl-4-((5-(4,5-dimethyl-2-nitrophenyl)furan-2-yl)methylene)-5-oxopyrazol-1-yl)propanoic acid] came in with a melting point of 189 to 190 °C. Besides, the “p300 HAT inhibition, result in words (analogs compared with C646)” value at p300 HAT [1] was “cannot successfully replace the benzoate ring of C646 and still retain p300 inhibitory potency”. As to `COC(=O)c1cc(C)c(C)cc1-c1ccc(/C=C2\C(=O)N(c3ccc(C(=O)O)cc3)N=C2C)o1` [Compound 6m, 4-(4,5-dihydro-4-((5-(4,5-dimethyl-2-methylbenzoate)furan-2-yl)methylene)-3-methyl-5-oxapyrazol-1-yl)benzoic acid], the melting point is 254 to 256 °C. The “p300 HAT inhibition, result in words (analogs compared with C646)” value at p300 HAT [1] is “well tolerated”.

Compound `COC(=O)c1ccc(N2N=C(C)C(=Cc3ccc(-c4cc(C)c(C)cc4[N+](=O)[O-])o3)C2=O)cc1` [Compound 6h, Methyl 4-(4,5-dihydro-3-methyl-4-((5-(4,5-dimethyl-2-nitrophenyl)furan-2-yl)methylene)-5-oxopyrazol-1-yl)benzoate] gave a melting point of 214 to 216 °C. Besides, on p300 HAT [1], the “weakening of p300 inhibitory potency compared with C646 (relative IC50)” value is listed as above 15 fold. Take `CC1=NN(c2ccc(S(=O)(=O)O)cc2)C(=O)C1=Cc1ccc(-c2cc(C)c(C)cc2[N+](=O)[O-])o1` [Compound 6f]: the “p300 HAT inhibition, result in words (analogs compared with C646)” value at p300 HAT [1] is “well tolerated”. `CC1=NN(c2ccc(C(N)=O)c(Cl)c2)C(=O)/C1=C\c1ccc(-c2cc(C)c(C)cc2[N+](=O)[O-])o1` [Compound 6b, 4-(4,5-dihydro-3-methyl-4-((5-(4,5-dimethyl-2-nitrophenyl)furan-2-yl)methylene)-5-oxopyrazol-1-yl)-2-chloro-benzamide] had a melting point of 267 to 269 °C. On to `Cc1cc(-c2ccc(C(=O)c3c(C)nn(-c4ccc(C(=O)O)cc4)c3O)o2)c([N+](=O)[O-])cc1C` [Compound 6q], for which the “weakening of p300 inhibitory potency compared with C646 (relative IC50)” value at p300 HAT [1] was found to be 6 fold.
